Laboratory results from the supplement of paper PMC10307832.

Columns and labels:
Assay in all cases: relative viability (nuclei count vs DMSO), 5 days (fraction); higher = more cells survive
NCI-H1734 = tested on: NCI-H1734
In short: (§1)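 Five library-drug doses in √10 steps were combined with a fixed anchor-drug dose, or a single drug was given alone, by pin tool to lung cancer cell lines in 1536-well plates the day after seeding. Nuclei were stained and counted after 5 days. Relative viability is the nuclei count in treated wells over that in vehicle wells, taken as the median of duplicate plates.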

NCI-H1395 = tested on: NCI-H1395
In short: as §1

NCI-H1793 = tested on: NCI-H1793
In short: as §1

HOP-62 = tested on: HOP-62
In short: as §1

NCI-H2342 = tested on: NCI-H2342
In short: as §1

NCI-H1755 = tested on: NCI-H1755
In short: as §1

SK-MES-1 = tested on: SK-MES-1
In short: as §1

NCI-H2009 = tested on: NCI-H2009
In short: as §1

NCI-H647 = tested on: NCI-H647
In short: as §1

UMC-11 = tested on: UMC-11
In short: as §1

COR-L 105 = tested on: COR-L 105
In short: as §1

NCI-H358 = tested on: NCI-H358
In short: as §1

NCI-H2228 = tested on: NCI-H2228
In short: as §1

PC-14 = tested on: PC-14
In short: as §1

HCC-15 = tested on: HCC-15
In short: as §1

HARA = tested on: HARA
In short: as §1

NCI-H838 = tested on: NCI-H838
In short: as §1

COR-L23 = tested on: COR-L23
In short: as §1

NCI-H2347 = tested on: NCI-H2347
In short: as §1

NCI-H1993 = tested on: NCI-H1993
In short: as §1

NCI-H1355 = tested on: NCI-H1355
In short: as §1

EKVX = tested on: EKVX
In short: as §1

NCI-H2170 = tested on: NCI-H2170
In short: as §1

NC(=O)Nc1cc(-c2cccc(F)c2)sc1C(=O)N[C@H]1CCCNC1 [AZD7762] + O=C(c1cc(Cc2n[nH]c(=O)c3ccccc23)ccc1F)N1CCN(C(=O)C2CC2)CC1 [Olaparib] (partner 8 µM)
relative viability (NCI-H1734; first compound 0.01 µM): 0.746 | relative viability (NCI-H1734; first compound 0.03162 µM): 0.663 | relative viability (NCI-H1734; first compound 0.1 µM): 0.72 | relative viability (NCI-H1734; first compound 0.3162 µM): 0.491 | relative viability (NCI-H1734; first compound 1 µM): 0.316 | relative viability (NCI-H1395; first compound 0.01 µM): 0.505 | relative viability (NCI-H1395; first compound 0.03162 µM): 0.415 | relative viability (NCI-H1395; first compound 0.1 µM): 0.393 | relative viability (NCI-H1395; first compound 0.3162 µM): 0.387 | relative viability (NCI-H1395; first compound 1 µM): 0.354 | relative viability (NCI-H1793; first compound 0.01 µM): 0.886 | relative viability (NCI-H1793; first compound 0.03162 µM): 0.909 | relative viability (NCI-H1793; first compound 0.1 µM): 0.917 | relative viability (NCI-H1793; first compound 0.3162 µM): 0.997 | relative viability (NCI-H1793; first compound 1 µM): 0.248 | relative viability (HOP-62; first compound 0.01 µM): 0.541 | relative viability (HOP-62; first compound 0.03162 µM): 0.239 | relative viability (HOP-62; first compound 0.1 µM): 0.313 | relative viability (HOP-62; first compound 0.3162 µM): 0.297 | relative viability (HOP-62; first compound 1 µM): 0.136 | relative viability (NCI-H2342; first compound 0.01 µM): 0.449 | relative viability (NCI-H2342; first compound 0.03162 µM): 0.393 | relative viability (NCI-H2342; first compound 0.1 µM): 0.496 | relative viability (NCI-H2342; first compound 0.3162 µM): 0.457 | relative viability (NCI-H2342; first compound 1 µM): 0.515 | relative viability (NCI-H1755; first compound 0.01 µM): 1.01 | relative viability (NCI-H1755; first compound 0.03162 µM): 0.92 | relative viability (NCI-H1755; first compound 0.1 µM): 0.957 | relative viability (NCI-H1755; first compound 0.3162 µM): 0.855 | relative viability (NCI-H1755; first compound 1 µM): 0.619 | relative viability (SK-MES-1; first compound 0.01 µM): 0.831 | relative viability (SK-MES-1; first compound 0.03162 µM): 0.828 | relative viability (SK-MES-1; first compound 0.1 µM): 0.506 | relative viability (SK-MES-1; first compound 0.3162 µM): 0.247 | relative viability (SK-MES-1; first compound 1 µM): 0.189 | relative viability (NCI-H2009; first compound 0.01 µM): 0.719 | relative viability (NCI-H2009; first compound 0.03162 µM): 0.726 | relative viability (NCI-H2009; first compound 0.1 µM): 0.747 | relative viability (NCI-H2009; first compound 0.3162 µM): 0.521 | relative viability (NCI-H2009; first compound 1 µM): 0.34 | relative viability (NCI-H647; first compound 0.01 µM): 0.612 | relative viability (NCI-H647; first compound 0.03162 µM): 0.494 | relative viability (NCI-H647; first compound 0.1 µM): 0.238 | relative viability (NCI-H647; first compound 0.3162 µM): 0.0816 | relative viability (NCI-H647; first compound 1 µM): 0.0532 | relative viability (UMC-11; first compound 0.01 µM): 0.819 | relative viability (UMC-11; first compound 0.03162 µM): 0.342 | relative viability (UMC-11; first compound 0.1 µM): 0.277 | relative viability (UMC-11; first compound 0.3162 µM): 0.256 | relative viability (UMC-11; first compound 1 µM): 0.255 | relative viability (COR-L 105; first compound 0.01 µM): 0.699 | relative viability (COR-L 105; first compound 0.03162 µM): 0.643 | relative viability (COR-L 105; first compound 0.1 µM): 0.529 | relative viability (COR-L 105; first compound 0.3162 µM): 0.542 | relative viability (COR-L 105; first compound 1 µM): 0.516 | relative viability (NCI-H358; first compound 0.01 µM): 0.872 | relative viability (NCI-H358; first compound 0.03162 µM): 0.64 | relative viability (NCI-H358; first compound 0.1 µM): 0.715 | relative viability (NCI-H358; first compound 0.3162 µM): 0.408 | relative viability (NCI-H358; first compound 1 µM): 0.212 | relative viability (NCI-H2228; first compound 0.01 µM): 0.659 | relative viability (NCI-H2228; first compound 0.03162 µM): 0.778 | relative viability (NCI-H2228; first compound 0.1 µM): 0.637 | relative viability (NCI-H2228; first compound 0.3162 µM): 0.311 | relative viability (NCI-H2228; first compound 1 µM): 0.193 | relative viability (PC-14; first compound 0.01 µM): 0.248 | relative viability (PC-14; first compound 0.03162 µM): 0.157 | relative viability (PC-14; first compound 0.1 µM): 0.0969 | relative viability (PC-14; first compound 0.3162 µM): 0.0837 | relative viability (PC-14; first compound 1 µM): 0.0568 | relative viability (HCC-15; first compound 0.01 µM): 0.824 | relative viability (HCC-15; first compound 0.03162 µM): 0.948 | relative viability (HCC-15; first compound 0.1 µM): 0.898 | relative viability (HCC-15; first compound 0.3162 µM): 1.04 | relative viability (HCC-15; first compound 1 µM): 0.983 | relative viability (HARA; first compound 0.01 µM): 0.768 | relative viability (HARA; first compound 0.03162 µM): 0.759 | relative viability (HARA; first compound 0.1 µM): 0.507 | relative viability (HARA; first compound 0.3162 µM): 0.301 | relative viability (HARA; first compound 1 µM): 0.229 | relative viability (NCI-H838; first compound 0.01 µM): 0.86 | relative viability (NCI-H838; first compound 0.03162 µM): 0.774 | relative viability (NCI-H838; first compound 0.1 µM): 0.744 | relative viability (NCI-H838; first compound 0.3162 µM): 0.493 | relative viability (NCI-H838; first compound 1 µM): 0.169 | relative viability (COR-L23; first compound 0.01 µM): 0.405 | relative viability (COR-L23; first compound 0.03162 µM): 0.248 | relative viability (COR-L23; first compound 0.1 µM): 0.215 | relative viability (COR-L23; first compound 0.3162 µM): 0.166 | relative viability (COR-L23; first compound 1 µM): 0.0843 | relative viability (NCI-H2347; first compound 0.01 µM): 0.612 | relative viability (NCI-H2347; first compound 0.03162 µM): 0.656 | relative viability (NCI-H2347; first compound 0.1 µM): 0.78 | relative viability (NCI-H2347; first compound 0.3162 µM): 0.693 | relative viability (NCI-H2347; first compound 1 µM): 0.544 | relative viability (NCI-H1993; first compound 0.01 µM): 1.18 | relative viability (NCI-H1993; first compound 0.03162 µM): 1.03 | relative viability (NCI-H1993; first compound 0.1 µM): 1.12 | relative viability (NCI-H1993; first compound 0.3162 µM): 1.42 | relative viability (NCI-H1993; first compound 1 µM): 0.922 | relative viability (NCI-H1355; first compound 0.01 µM): 0.705 | relative viability (NCI-H1355; first compound 0.03162 µM): 0.798 | relative viability (NCI-H1355; first compound 0.1 µM): 0.862 | relative viability (NCI-H1355; first compound 0.3162 µM): 0.862 | relative viability (NCI-H1355; first compound 1 µM): 0.615 | relative viability (EKVX; first compound 0.01 µM): 0.82 | relative viability (EKVX; first compound 0.03162 µM): 1.04 | relative viability (EKVX; first compound 0.1 µM): 0.62 | relative viability (EKVX; first compound 0.3162 µM): 0.844 | relative viability (EKVX; first compound 1 µM): 0.393 | relative viability (NCI-H2170; first compound 0.01 µM): 0.553 | relative viability (NCI-H2170; first compound 0.03162 µM): 0.579 | relative viability (NCI-H2170; first compound 0.1 µM): 0.535 | relative viability (NCI-H2170; first compound 0.3162 µM): 0.423 | relative viability (NCI-H2170; first compound 1 µM): 0.254
